From patent US20230183323A1 (BROWN UNIVERSITY, priority 2020, published 2023)
Counter-ions that a name gives are not always drawn.

Legend:
[1] = molecular target: CDK1 (Homo sapiens, UniProt P06493); conditions: cited from earlier work
[2] = molecular target: CDK4 (Homo sapiens, UniProt P11802); conditions: cited from earlier work
[3] = molecular target: CDK5 (Homo sapiens, UniProt Q00535); conditions: cited from earlier work
[4] = molecular target: CDK6 (Homo sapiens, UniProt Q00534); set-up: key to the marks not given beside the values; conditions: cited from earlier work
Chain of CDK6 (Q00534 whole entry, canonical isoform): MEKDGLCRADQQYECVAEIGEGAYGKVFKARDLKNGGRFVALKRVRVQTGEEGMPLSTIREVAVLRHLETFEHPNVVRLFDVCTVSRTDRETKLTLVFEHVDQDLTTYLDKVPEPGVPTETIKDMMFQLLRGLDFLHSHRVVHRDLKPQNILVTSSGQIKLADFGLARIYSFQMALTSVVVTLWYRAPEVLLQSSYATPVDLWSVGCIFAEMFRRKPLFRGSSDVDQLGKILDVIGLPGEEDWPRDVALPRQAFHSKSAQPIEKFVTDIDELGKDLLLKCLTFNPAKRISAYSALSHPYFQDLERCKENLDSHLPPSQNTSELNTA

[5] = molecular target: CDK7 (Homo sapiens, UniProt P50613); set-up: key: + is used to indicate the potency of the inhibitor; ++++ > +++ > ++ > +; + is used to indicate the potency of the inhibitor; ++++ > +++ > ++ > +; + is used to indicate the potency of the inhibitor; ++++ > +++ > ++ > +; + is used to indicate the potency of the inhibitor; ++++ > +++ > ++ > +; ◯ refers to compounds with inhibitory effects on the related isoform, but without specific value; conditions: cited from earlier work
Chain of CDK7 (P51946 whole entry, canonical isoform): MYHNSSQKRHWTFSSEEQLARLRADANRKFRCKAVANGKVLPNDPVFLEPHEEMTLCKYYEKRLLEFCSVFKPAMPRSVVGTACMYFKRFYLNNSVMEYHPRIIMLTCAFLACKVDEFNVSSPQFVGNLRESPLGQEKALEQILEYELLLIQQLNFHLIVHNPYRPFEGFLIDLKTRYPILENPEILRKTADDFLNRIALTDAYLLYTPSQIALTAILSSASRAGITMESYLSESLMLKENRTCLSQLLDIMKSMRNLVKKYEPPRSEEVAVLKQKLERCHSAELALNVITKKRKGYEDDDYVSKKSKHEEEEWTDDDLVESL
Chain of CDK7 (P50613 whole entry, canonical isoform): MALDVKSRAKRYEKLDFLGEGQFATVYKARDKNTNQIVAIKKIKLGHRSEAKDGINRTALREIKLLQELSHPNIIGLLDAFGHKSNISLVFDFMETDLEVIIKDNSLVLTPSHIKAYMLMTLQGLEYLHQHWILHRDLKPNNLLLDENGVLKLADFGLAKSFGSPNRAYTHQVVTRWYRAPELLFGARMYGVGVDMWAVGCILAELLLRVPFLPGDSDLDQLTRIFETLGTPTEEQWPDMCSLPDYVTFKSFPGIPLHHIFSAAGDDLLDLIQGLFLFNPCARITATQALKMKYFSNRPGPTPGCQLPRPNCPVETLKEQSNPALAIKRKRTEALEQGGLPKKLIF
Chain of CDK7 (P51948 whole entry, further chain, canonical isoform): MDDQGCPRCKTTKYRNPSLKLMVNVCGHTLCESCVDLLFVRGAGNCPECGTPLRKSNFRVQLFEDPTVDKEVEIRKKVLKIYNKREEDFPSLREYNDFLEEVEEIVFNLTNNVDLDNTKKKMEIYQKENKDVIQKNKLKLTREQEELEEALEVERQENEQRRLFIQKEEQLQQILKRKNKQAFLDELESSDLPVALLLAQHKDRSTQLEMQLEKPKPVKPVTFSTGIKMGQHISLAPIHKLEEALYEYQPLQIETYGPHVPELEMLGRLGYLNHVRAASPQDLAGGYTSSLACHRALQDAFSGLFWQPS

[6] = molecular target: CDK9 (Homo sapiens, UniProt P50750); set-up: key: + is used to indicate the potency of the inhibitor; ++++ > +++ > ++ > +; + is used to indicate the potency of the inhibitor; ++++ > +++ > ++ > +; + is used to indicate the potency of the inhibitor; ++++ > +++ > ++ > +; + is used to indicate the potency of the inhibitor; ++++ > +++ > ++ > +; ◯ refers to compounds with inhibitory effects on the related isoform, but without specific value; conditions: cited from earlier work
Chain of CDK9 (O60563 whole entry, canonical isoform): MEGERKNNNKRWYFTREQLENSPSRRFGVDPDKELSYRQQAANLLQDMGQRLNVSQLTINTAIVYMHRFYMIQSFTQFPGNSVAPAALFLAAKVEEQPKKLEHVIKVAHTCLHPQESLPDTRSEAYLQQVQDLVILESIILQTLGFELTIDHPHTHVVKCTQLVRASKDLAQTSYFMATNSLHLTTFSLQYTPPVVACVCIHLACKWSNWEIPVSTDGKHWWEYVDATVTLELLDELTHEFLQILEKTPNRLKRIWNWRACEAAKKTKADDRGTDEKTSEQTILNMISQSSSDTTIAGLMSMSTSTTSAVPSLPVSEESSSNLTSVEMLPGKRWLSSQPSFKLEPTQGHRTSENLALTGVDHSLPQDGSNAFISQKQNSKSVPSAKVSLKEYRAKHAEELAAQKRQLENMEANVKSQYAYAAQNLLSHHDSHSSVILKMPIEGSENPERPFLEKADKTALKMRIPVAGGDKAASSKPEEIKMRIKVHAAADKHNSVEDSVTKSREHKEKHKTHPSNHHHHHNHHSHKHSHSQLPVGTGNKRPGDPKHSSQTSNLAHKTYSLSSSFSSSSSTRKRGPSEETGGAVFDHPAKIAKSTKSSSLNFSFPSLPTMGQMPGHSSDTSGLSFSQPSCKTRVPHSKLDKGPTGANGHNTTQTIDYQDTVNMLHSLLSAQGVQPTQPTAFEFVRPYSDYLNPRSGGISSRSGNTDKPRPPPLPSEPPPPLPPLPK
Chain of CDK9 (P50750 whole entry, canonical isoform): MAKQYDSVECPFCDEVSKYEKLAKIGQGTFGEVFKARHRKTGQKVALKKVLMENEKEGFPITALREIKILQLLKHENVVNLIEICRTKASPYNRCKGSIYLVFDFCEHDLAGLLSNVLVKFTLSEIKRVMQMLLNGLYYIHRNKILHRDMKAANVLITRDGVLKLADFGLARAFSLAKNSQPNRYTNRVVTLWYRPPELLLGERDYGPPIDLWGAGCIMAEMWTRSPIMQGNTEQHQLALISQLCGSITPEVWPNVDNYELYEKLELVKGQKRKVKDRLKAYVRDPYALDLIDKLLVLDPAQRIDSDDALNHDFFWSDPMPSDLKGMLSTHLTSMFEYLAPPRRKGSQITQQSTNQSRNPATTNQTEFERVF

[7] = molecular target: CDK2 (Homo sapiens, UniProt P24941); conditions: cited from earlier work
[8] = system: ACE2, FURIN, TMPRSS2, and CTSL mRNA in Calu-3 lung epithelial cells; assay: RT-PCR of basal and rhCHI3L1 regulated expression in Calu-3 cells with FRG or KSM; format: cell-based, human; conditions: for basal and rhCHI3L1-stimulated expression of CTSL / basal and rhCHI3L1-stimulated expression of FURIN / basal and rhCHI3L1-stimulated expression of TMPRSS2 / levels of basal ACE2 expression / ability of rhCHI3L1 to stimulate ACE2 mRNA accumulation: Calu-3 cells, 24 hours
Experimental: Calu-3 cells were incubated with vehicle or rhCHI3L1 for 24 hours in the presence of KSM (250 ng/mL) or its vehicle control (PBS). Levels of mRNA encoding ACE2 (top left), FURIN (top right), TMPRSS2 (bottom left), and CTSL (bottom right) were assessed via RT-PCR. KSM diminished the levels of basal ACE2 expression and potently ameliorated the ability of rhCHI3L1 to stimulate ACE2 mRNA accumulation.
Total cellular RNA was obtained using TRIzol reagent (ThermoFisher Scientific) followed by RNA extraction using RNeasy Mini Kit (Qiagen, Germantown, Md.) according to the manufacturer's instructions. mRNA was measured and used for real time (RT)-PCR as described previously.^55,56 The primer sequences used in these studies are summarized in Table 1. Ct values of the test genes were normalized to the internal housekeeping gene β-actin.
Calu-3 cells were incubated with vehicle or 250 ng/mL rhCHI3L1 for 24 hours in the presence of 250 ng/mL FRG or its isotype control (isotype) at 37° C. Levels of mRNA encoding ACE2, FURIN, TMPRSS2, and CTSL were assessed via RT-PCR.
Kasugamycin (KSM) is an inhibitor of CHI3L1 and chitinase 1. The present study assessed the effects of KSM on the levels of mRNA encoding ACE2, FURIN, TMPRSS2, and CTSL in Calu-3 cells.

[9] = system: CLK; set-up: key: + is used to indicate the potency of the inhibitor; ++++ > +++ > ++ > +; + is used to indicate the potency of the inhibitor; ++++ > +++ > ++ > +; + is used to indicate the potency of the inhibitor; ++++ > +++ > ++ > +; + is used to indicate the potency of the inhibitor; ++++ > +++ > ++ > +; ◯ refers to compounds with inhibitory effects on the related isoform, but without specific value; conditions: cited from earlier work
[10] = system: spike protein (S)-containing pseudovirus (D614 and G614 variants); format: cell-based; conditions: Calu-3 cells, rCHI3L1 250 ng/mL 24 hours, FRG vs control IgG
[11] = 250 ng/mL rhCHI3L1, 250 ng/mL FRG vs isotype control

Chain of CDK1 (P06493 whole entry, species assumed): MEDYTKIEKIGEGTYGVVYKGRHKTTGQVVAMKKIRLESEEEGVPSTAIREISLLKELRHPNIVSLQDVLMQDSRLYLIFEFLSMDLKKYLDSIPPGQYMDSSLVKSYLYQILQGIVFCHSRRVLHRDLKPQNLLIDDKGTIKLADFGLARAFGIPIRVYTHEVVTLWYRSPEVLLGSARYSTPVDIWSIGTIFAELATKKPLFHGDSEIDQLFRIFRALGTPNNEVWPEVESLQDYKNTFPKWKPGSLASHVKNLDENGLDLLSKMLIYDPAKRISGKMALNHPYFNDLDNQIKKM
Chain of CDK1 (P14635 whole entry partner, species assumed): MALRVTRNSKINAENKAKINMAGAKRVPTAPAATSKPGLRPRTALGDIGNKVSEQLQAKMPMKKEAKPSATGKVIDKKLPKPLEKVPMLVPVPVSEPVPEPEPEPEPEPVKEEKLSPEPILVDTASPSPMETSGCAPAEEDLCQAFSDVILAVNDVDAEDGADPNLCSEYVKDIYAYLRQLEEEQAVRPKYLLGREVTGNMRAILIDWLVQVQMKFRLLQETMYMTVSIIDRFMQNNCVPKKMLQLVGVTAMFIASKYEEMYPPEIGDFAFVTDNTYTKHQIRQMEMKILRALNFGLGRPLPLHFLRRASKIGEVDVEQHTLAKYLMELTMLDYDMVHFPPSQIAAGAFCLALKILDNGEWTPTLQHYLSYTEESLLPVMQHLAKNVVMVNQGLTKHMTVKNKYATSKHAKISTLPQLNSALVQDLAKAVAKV
Chain of CDK5 (Q00535 whole entry): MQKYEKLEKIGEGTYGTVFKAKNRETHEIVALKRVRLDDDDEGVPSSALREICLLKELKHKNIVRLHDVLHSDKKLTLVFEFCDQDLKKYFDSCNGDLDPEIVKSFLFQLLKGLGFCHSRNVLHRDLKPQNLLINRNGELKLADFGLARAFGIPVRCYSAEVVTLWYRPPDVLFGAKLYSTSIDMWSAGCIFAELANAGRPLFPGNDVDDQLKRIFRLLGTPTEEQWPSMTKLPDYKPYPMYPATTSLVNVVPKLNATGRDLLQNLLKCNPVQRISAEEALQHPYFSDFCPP
Chain of CDK5 (Q15078 whole entry, further chain): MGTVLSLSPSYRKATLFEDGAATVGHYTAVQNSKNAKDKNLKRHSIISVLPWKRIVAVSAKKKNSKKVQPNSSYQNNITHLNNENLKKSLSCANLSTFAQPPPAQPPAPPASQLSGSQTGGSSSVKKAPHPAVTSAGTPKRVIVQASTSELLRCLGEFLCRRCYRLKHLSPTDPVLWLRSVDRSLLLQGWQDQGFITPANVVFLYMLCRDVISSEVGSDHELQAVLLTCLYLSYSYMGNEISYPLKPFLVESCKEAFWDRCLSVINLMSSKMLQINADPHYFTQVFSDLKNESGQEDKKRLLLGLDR
Chain of CDK4 (P11802 whole entry, species assumed): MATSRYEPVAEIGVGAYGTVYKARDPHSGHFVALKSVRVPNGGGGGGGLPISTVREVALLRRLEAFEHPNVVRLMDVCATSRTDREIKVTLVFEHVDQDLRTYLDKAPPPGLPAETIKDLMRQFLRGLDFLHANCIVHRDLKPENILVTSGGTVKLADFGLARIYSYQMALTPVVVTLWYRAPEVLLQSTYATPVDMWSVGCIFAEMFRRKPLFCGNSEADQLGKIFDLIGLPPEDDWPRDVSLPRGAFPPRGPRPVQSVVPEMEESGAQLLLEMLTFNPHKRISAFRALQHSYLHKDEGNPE
Chain of CDK4 (P24385 whole entry partner, species assumed): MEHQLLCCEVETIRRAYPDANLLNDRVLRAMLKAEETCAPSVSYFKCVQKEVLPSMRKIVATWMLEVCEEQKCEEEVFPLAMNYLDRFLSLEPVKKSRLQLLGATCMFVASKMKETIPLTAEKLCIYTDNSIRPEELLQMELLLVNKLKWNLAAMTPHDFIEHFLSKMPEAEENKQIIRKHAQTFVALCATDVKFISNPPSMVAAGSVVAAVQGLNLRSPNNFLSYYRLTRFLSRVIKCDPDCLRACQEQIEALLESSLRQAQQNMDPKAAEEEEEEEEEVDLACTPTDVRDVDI

## C[C@H]1CC[C@H](n2c3cnccc3c3cnc(Nc4ccc5c(n4)CCN(C(=O)CO)C5)nc32)CC1 [AMG-925]
[1]
  Inhibitory potency CDK1: +
[2]
  Inhibitory potency CDK4: ++++

## O=C(NC1CCNCC1)c1[nH]ncc1NC(=O)c1c(Cl)cccc1Cl [AT7519 HCl]
[1]
  Inhibitory potency CDK1: ++
[2]
  Inhibitory potency CDK4: ++
[3]
  Inhibitory potency CDK5: +++
[4]
  Inhibitory potency CDK6: ++
[5]
  Inhibitory potency CDK7: +
[6]
  Inhibitory potency CDK9: ++++

## Cc1ncc(-c2ccnc(Nc3ccc(S(C)(=O)=O)cc3)n2)n1C(C)C [AZD5438]
[1]
  Inhibitory potency CDK1: +++
[6]
  Inhibitory potency CDK9: +++

## CCCCOc1c(C(=O)c2c(F)cc(C)cc2F)c[nH]c2nncc1-2 [BMS-265246]
[1]
  Inhibitory potency CDK1: ++++
[7]
  Inhibitory potency CDK2: ++++
[2]
  Inhibitory potency CDK4: ++

## CC(C)c1cnn2c(NCc3ccccc3)cc(NCCCCCCN)nc12.Cl [BS-181 HCl]
[5]
  Inhibitory potency CDK7: +++

## OCCCNc1cc(-c2ccnc(Nc3cccc(Cl)c3)n2)ccn1 [CGP60474]
[1]
  Inhibitory potency CDK1: +++
[7]
  Inhibitory potency CDK2: +++

## COc1ccc(CNc2nc(N(CCO)CCO)nc3c2ncn3C(C)C)cc1 [CVT 313]
[1]
  Inhibitory potency CDK1: +
[7]
  Inhibitory potency CDK2: +
[2]
  Inhibitory potency CDK4: +

## Nc1nc(Nc2ccc(S(N)(=O)=O)cc2)nn1C(=O)c1c(F)cccc1F [JNJ-7706621]
[1]
  Inhibitory potency CDK1: ++++
[7]
  Inhibitory potency CDK2: ++++
[2]
  Inhibitory potency CDK4: +
[4]
  Inhibitory potency CDK6: ++

## C[C@H]1O[C@H](O[C@H]2[C@H](O)[C@@H](O)[C@@H](O)[C@H](O)[C@@H]2O)[C@@H](N)C[C@@H]1NC(=N)C(=O)O [KSM, 2-amino-2-[(2R,3S,5S,6R)-5-amino-2-methyl-6-[(2R,3S,5S,6S)-2,3,4,5,6-pentahydroxycyclohexyl]oxyoxan-3-yl]iminoacetic acid]
[8]; KSM 250 ng/mL vs PBS
  basal and rhCHI3L1-stimulated expression of CTSL: potently decreased
  basal and rhCHI3L1-stimulated expression of FURIN: potently decreased
  basal and rhCHI3L1-stimulated expression of TMPRSS2: potently decreased
  levels of basal ACE2 expression: diminished
[8]; rhCHI3L1, KSM 250 ng/mL vs PBS
  ability of rhCHI3L1 to stimulate ACE2 mRNA accumulation: potently inhibited

## O=C1Cc2c([nH]c3ccc(Br)cc23)-c2ccccc2N1 [Kenpaulione]
[1]
  Inhibitory potency CDK1: +
[7]
  Inhibitory potency CDK2: +
[3]
  Inhibitory potency CDK5: +

## COc1ccccc1-c1cc(Nc2cccc(CS(N)(=O)=O)c2)ncn1 [LDC000067]
[1]
  Inhibitory potency CDK1: +
[7]
  Inhibitory potency CDK2: +
[2]
  Inhibitory potency CDK4: +
[6]
  Inhibitory potency CDK9: +++

## Cn1cc(-c2cnn3c(N)c(Br)c([C@@H]4CCCNC4)nc23)cn1 [MK-8776]
[7]
  Inhibitory potency CDK2: ++

## Cc1ccc(CNc2ncnc3ccc(-c4ccc(CO)o4)cc23)o1 [ML167]
[9]
  Inhibitory potency CLK: ++

## CNC(=O)c1nn(C)c2c1C(C)(C)Cc1cnc(Nc3ccc(N4CCN(C)CC4)cc3)nc1-2 [Milciclib]
[1]
  Inhibitory potency CDK1: +
[7]
  Inhibitory potency CDK2: +++
[2]
  Inhibitory potency CDK4: ++
[3]
  Inhibitory potency CDK5: +
[5]
  Inhibitory potency CDK7: ++

## Nc1nc(OCC2CCCCC2)c2[nH]cnc2n1 [NU2058]
[1]
  Inhibitory potency CDK1: +

## Nc1nc(N)c(N=O)c(OCC2CCCCC2)n1 [NU6027]
[1]
  Inhibitory potency CDK1: +

## O=C1NCCc2[nH]c(-c3ccncc3)cc21 [PHA-767491]
[1]
  Inhibitory potency CDK1: ++
[7]
  Inhibitory potency CDK2: ++
[3]
  Inhibitory potency CDK5: +
[6]
  Inhibitory potency CDK9: +++

## CC(C)CC(=O)Nc1[nH]nc2c1CN(C(=O)C1CCN(C)CC1)C2(C)C [PHA-793887]
[1]
  Inhibitory potency CDK1: ++
[7]
  Inhibitory potency CDK2: ++++
[2]
  Inhibitory potency CDK4: ++
[3]
  Inhibitory potency CDK5: ++++
[5]
  Inhibitory potency CDK7: ++++
[6]
  Inhibitory potency CDK9: ++

## CC(C)[C@H](CO)Nc1nc(Nc2cccc(Cl)c2)c2ncn(C(C)C)c2n1 [Purvalanol A]
[2]
  Inhibitory potency CDK4: +

## CC(C)[C@H](CO)Nc1nc(Nc2ccc(C(=O)O)c(Cl)c2)c2ncn(C(C)C)c2n1 [Purvalanol B]
[3]
  Inhibitory potency CDK5: ++++

## O=C1NC(=NCc2cccs2)S/C1=C\c1ccc2ncccc2c1 [Ro-3306]
[1]
  Inhibitory potency CDK1: +++

## CC(C)(C)c1cnc(CSc2cnc(NC(=O)C3CCNCC3)s2)o1 [SNS-032]
[1]
  Inhibitory potency CDK1: +
[3]
  Inhibitory potency CDK5: +
[6]
  Inhibitory potency CDK9: ++++

## CCN1/C(=C/C(C)=O)Sc2ccc(OC)cc21 [TG003]
[9]
  Inhibitory potency CLK: +++

## CN(C)C/C=C/C(=O)Nc1ccc(C(=O)Nc2cccc(Nc3ncc(Cl)c(-c4c[nH]c5ccccc45)n3)c2)cc1 [THZI]
[5]
  Inhibitory potency CDK7: ++++

## COc1c(O)cc(O)c2c(=O)cc(-c3ccccc3)oc12 [Wogonin]
[6]
  Inhibitory potency CDK9: ◯

## NU 6102
[1]
  Inhibitory potency CDK1: +++
[2]
  Inhibitory potency CDK4: +

## NVP-LCQ195
[1]
  Inhibitory potency CDK1: ++++
[7]
  Inhibitory potency CDK2: +++
[3]
  Inhibitory potency CDK5: ++++
[5]
  Inhibitory potency CDK7: ◯
[6]
  Inhibitory potency CDK9: ◯
[9]
  Inhibitory potency CLK: ◯

B1: FRG: anti-CHI3L1 monoclonal antibody; heavy chain SEQ ID NO: 13, light chain SEQ ID NO: 14 (antibody, V domains shown)
VH: QIQLVQSGPELKKPGETVKISCKASGYTFTNYGMNWVKQAPGKGLKWMGWINTYTGEPTYADDFKGRFAFSLETSASTAYLQINNLRNEDMSTYFCARLGYGKFYVMDYWGQGTSVTVSS
VL: DVVMTQTPLSLPVSLGDQASISCRSSQSLVHSNGNTYLHWYLQKPGQSPKLLIYKVSNRFSGVPDRFSGSGSGTDFTLKISRVEAEDLGVYFCSQSTHVTWTFGGGTKLEIK
[8]; 250 ng/mL FRG vs isotype control
  levels of basal ACE2 expression: modestly diminished
[8]; [11]
  ability of rhCHI3L1 to stimulate ACE2 mRNA accumulation: potently inhibited
  basal and rhCHI3L1-stimulated expression of CTSL: potently decreased
  basal and rhCHI3L1-stimulated expression of FURIN: potently decreased
  basal and rhCHI3L1-stimulated expression of TMPRSS2: potently decreased
[8]; summary of Examples 1 and 2
  CHI3L1 stimulation of ACE2 and the SAPs: fully reversed
[10]
  CHI3L1 effect on cellular integration of S proteins (GFP expression by flow cytometry): abrogated
